Reference: ChEMBL document CHEMBL1933065, “Synthesis and antifungal evaluation of pyrido[1,2-a]indole-1,4-diones and benzo[f]pyrido[1,2-a]indole-6,11-diones” (2012)
Converted amounts (≈) assume the structure as drawn.

Assays:
Type in all cases: functional
[1] = test system: Aspergillus niger; experiment: Antifungal activity against Aspergillus niger KCTC 1231 after 2 days by two fold broth dilution method; details: KCTC 1231, 48 h
[2] = test system: Pichia kudriavzevii; experiment: Antifungal activity against Candida krusei Berkout KCCM 11655 after 1 day by two fold broth dilution method; details: Berkout KCCM 11655, 24 h
[3] = test system: Aspergillus flavus; experiment: Antifungal activity against Aspergillus flavus KCCM 11899 after 2 days by two fold broth dilution method; details: KCCM 11899, 48 h
[4] = test system: Candida tropicalis; experiment: Antifungal activity against Candida tropicalis Berkout KCCM 50662 after 1 day by two fold broth dilution method; details: Berkout KCCM 50662, 24 h
[5] = test system: Candida albicans; experiment: Antifungal activity against Candida albicans Berkout KCCM 50235 after 1 day by standard two fold broth dilution method; details: Berkout KCCM 50235, 24 h
[6] = test system: Cryptococcus neoformans; experiment: Antifungal activity against Cryptococcus neoformans Berkout KCCM 50564 after 1 day by two fold broth dilution method; details: Berkout KCCM 50564, 24 h

Compound | MIC [1] [µg/mL] | MIC [2] [µg/mL] | MIC [3] [µg/mL] | MIC [4] [µg/mL] | MIC [5] [µg/mL] | MIC [6] [µg/mL]
CCOC(=O)c1c2c(n3ccc(OC)cc13)C(=O)c1ccccc1C2=O | 6.3 (≈ 18 µM) | 25 (≈ 71.6 µM) | 12.5 (≈ 35.8 µM) | 25 (≈ 71.6 µM) | 12.5 (≈ 35.8 µM) | 3.2 (≈ 9.16 µM)
CCOC(=O)c1c2c(n3ccc(CC)cc13)C(=O)c1ccccc1C2=O | > 100 | > 100 | 50 (≈ 144 µM) | 50 (≈ 144 µM) | 25 (≈ 72 µM) | 25 (≈ 72 µM)
CCOC(=O)c1c2c(n3cc(C)ccc13)C(=O)c1ccccc1C2=O | 3.2 (≈ 9.6 µM) | 25 (≈ 75 µM) | 25 (≈ 75 µM) | 6.3 (≈ 18.9 µM) | 12.5 (≈ 37.5 µM) | 12.5 (≈ 37.5 µM)
COC(=O)c1c2c(n3ccc(OC)cc13)C(=O)c1ccccc1C2=O | 3.2 (≈ 9.54 µM) | 50 (≈ 149 µM) | 12.5 (≈ 37.3 µM) | 50 (≈ 149 µM) | 25 (≈ 74.6 µM) | 25 (≈ 74.6 µM)
CCc1ccn2c3c(c(C(=O)OC)c2c1)C(=O)c1ccccc1C3=O | 3.2 (≈ 9.6 µM) | 50 (≈ 150 µM) | 25 (≈ 75 µM) | 12.5 (≈ 37.5 µM) | 6.3 (≈ 18.9 µM) | 12.5 (≈ 37.5 µM)
COC(=O)c1c2c(n3cc(C)ccc13)C(=O)c1ccccc1C2=O | 25 (≈ 78.3 µM) | 50 (≈ 157 µM) | 50 (≈ 157 µM) | > 100 | 25 (≈ 78.3 µM) | 25 (≈ 78.3 µM)
Cc1ccn2c3c(cc2c1)C(=O)c1ccccc1C3=O | 50 (≈ 191 µM) | 6.3 (≈ 24.1 µM) | 3.2 (≈ 12.2 µM) | 12.5 (≈ 47.8 µM) | 12.5 (≈ 47.8 µM) | 6.3 (≈ 24.1 µM)
COc1ccn2c3c(cc2c1)C(=O)c1ccccc1C3=O | 25 (≈ 90.2 µM) | > 100 | 6.3 (≈ 22.7 µM) | 25 (≈ 90.2 µM) | 50 (≈ 180 µM) | > 100
Cc1ccn2c3c(c(C)c2c1)C(=O)c1ccccc1C3=O | 3.2 (≈ 11.6 µM) | 50 (≈ 182 µM) | 25 (≈ 90.8 µM) | 12.5 (≈ 45.4 µM) | 6.3 (≈ 22.9 µM) | 12.5 (≈ 45.4 µM)
COc1ccn2c3c(c(C)c2c1)C(=O)c1ccccc1C3=O | 25 (≈ 85.8 µM) | 50 (≈ 172 µM) | 50 (≈ 172 µM) | > 100 | 25 (≈ 85.8 µM) | 25 (≈ 85.8 µM)
CCc1ccn2c3c(c(C)c2c1)C(=O)c1ccccc1C3=O | 50 (≈ 173 µM) | 6.3 (≈ 21.8 µM) | 3.2 (≈ 11.1 µM) | 12.5 (≈ 43.2 µM) | 12.5 (≈ 43.2 µM) | 6.3 (≈ 21.8 µM)
CC1=C(C)C(=O)C([n+]2ccc(C)cc2)=C(Cl)C1=O.[Cl-] | 25 | 6.3 | 6.3 | 6.3 | 12.5 | 3.2
COc1cc[n+](C2=C(Cl)C(=O)C(C)=C(C)C2=O)cc1.[Cl-] | 25 | 12.5 | 25 | 100 | 25 | 6.3
Cc1cc[n+](C2=C(Cl)C(=O)c3ccccc3C2=O)cc1.[Cl-] | 50 | > 100 | > 100 | > 100 | > 100 | > 100
COc1cc[n+](C2=C(Cl)C(=O)c3ccccc3C2=O)cc1.[Cl-] | > 100 | > 100 | > 100 | 50 | > 100 | 50
CCOC(=O)c1c2c(n3ccccc13)C(=O)c1ccccc1C2=O | 12.5 (≈ 39.1 µM) | 12.5 (≈ 39.1 µM) | 6.3 (≈ 19.7 µM) | 25 (≈ 78.3 µM) | > 100 | 25 (≈ 78.3 µM)
OC(Cn1cncn1)(Cn1cncn1)c1ccc(F)cc1F [FLUCONAZOLE] | 6.3 (≈ 20.6 µM) | 25 (≈ 81.6 µM) | 25 (≈ 81.6 µM) | 3.2 (≈ 10.4 µM) | 50 (≈ 163 µM) | 6.3 (≈ 20.6 µM)
Nc1nc(=O)[nH]cc1F [FLUCYTOSINE] | 6.3 (≈ 48.8 µM) | 6.3 (≈ 48.8 µM) | 25 (≈ 194 µM) | 6.3 (≈ 48.8 µM) | 3.2 (≈ 24.8 µM) | 6.3 (≈ 48.8 µM)
